In patent US20260217692A1 (Ascentage Pharma (Suzhou) Co., Ltd., priority 2023, published 2026):
Where “and” joins values, the source holds several entries; their conditions need not be identical. Identical values can stand only once. Counter-ions that a name gives are not always drawn.

Key:
Assay type in all cases: physicochemical
[1] = Stability of crystal forms under stability test conditions (appearance, XRPD, HPLC)
Experimental: The samples were placed under the stability conditions shown in the following table, sampling was performed at the corresponding time points, and the samples were subjected to appearance and XRPD tests. […] The stability results obtained are recorded in the following table. […] The samples were placed under the stability test conditions shown in the following table, sampling was performed at different time points, and the samples were subjected to the XRPD test. […] The samples were placed in an open state under the stability test conditions of 40° C./75% RH and 90% RH; and the samples were placed in a closed state at 60° C. in a light box (the test samples in the dark were placed in the same manner as the illumination test samples, and the treatment was performed in the dark). Sampling was performed at different time points, and the samples were subjected to the XRPD test. […] The samples were placed under the stability conditions shown in the following table, sampling was performed at the corresponding time points, and the samples were subjected to appearance and XRPD tests. […] The stability results obtained are recorded in the following table.

[2] = Polymorph screening test, suspension method (crystal form by XRPD after stirring in solvent); details: for Crystal form (XRPD) / Crystal form (XRPD)/85° C.: mesylate screening, 3 days
Experimental: (or 50° C.) for 3 days in the dark and centrifuged to remove the supernatant; the resulting precipitate was dried under vacuum (25° C., −0.1 MPa); and the resulting solid was collected and subjected to the XRPD test. The results are as follows:
(or 50° C./80° C.) for 3 days in the dark and centrifuged to remove the supernatant; and the resulting precipitate was dried under vacuum (25° C., −0.1 MPa).
(or 50° C.) for 3 days in the dark and centrifuged to remove the supernatant; and the resulting precipitate was dried under vacuum (25° C., −0.1 MPa).

[3] = as above; details: mesylate screening, suspension in Toluene, 3 days
[4] = Polymorph screening test, diffusion method (crystal form by XRPD); details: mesylate screening, diffusion at room temperature
[5] = Solubility of mesylate crystal form A in buffers with different pH values at 37° C.
Experimental: Suspension states at 15 min, 2 h, 4 h, and 24 h were recorded; and different sample solutions at 15 min, 2 h, 4 h, and 24 h were collected and added to 1.5 mL centrifuge tubes. The suspensions were centrifuged at 12000 rpm for 2 min to obtain supernatants, and the supernatants were subjected to 2-fold dilution to obtain the sample solutions (the solutions were subjected to 10-fold dilution if the samples were dissolved completely). The residual substrates were centrifuged and subjected to the XRPD test.

[6] = Dynamic vapor sorption (DVS) hygroscopicity test; details: 25° C. and 80% RH
Text: In the present disclosure, the DVS test parameters are set as follows: [table]

Cc1cc(Nc2ncc(Cl)c(Nc3ccccc3S(=O)(=O)C(C)C)n2)c(OC(C)C)cc1C1=CCN(C2CCOCC2)CC1 [one equivalent of mesylate crystal form A]
Crystal form result by XRPD test ([1]; 25° C./60% RH, 1 month): Crystal form A | Crystal form result by XRPD test ([1]; 25° C./60% RH, 2 months): Crystal form A | Crystal form result by XRPD test ([1]; 25° C./60% RH, 3 months): Crystal form A | Crystal form result by XRPD test ([1]; 25° C./60% RH, 6 months): Crystal form A | Crystal form result by XRPD test ([1]; 25° C./60% RH, 5 days): Crystal form A | Crystal form result by XRPD test ([1]; 25° C./60% RH, 10 days): Crystal form A | Crystal form result by XRPD test ([1]; 40° C./75% RH, 1 month): Crystal form A | Crystal form result by XRPD test ([1]; 40° C./75% RH, 2 months): Crystal form A | Crystal form result by XRPD test ([1]; 40° C./75% RH, 3 months): Crystal form A | Crystal form result by XRPD test ([1]; 40° C./75% RH, 6 months): Crystal form A | Crystal form result by XRPD test ([1]; 40° C./75% RH, 5 days): Crystal form A | Crystal form result by XRPD test ([1]; 40° C./75% RH, 10 days): Crystal form A | Crystal form result by XRPD test ([1]; 60° C., 1 month): Crystal form A | Crystal form result by XRPD test ([1]; 60° C., 2 months): Crystal form A | Crystal form result by XRPD test ([1]; 60° C., 3 months): Crystal form A | Crystal form result by XRPD test ([1]; 60° C., 6 months): Crystal form A | Crystal form result by XRPD test ([1]; 60° C., 5 days): Crystal form A | Crystal form result by XRPD test ([1]; 60° C., 10 days): Crystal form A | Crystal form result by XRPD test ([1]; 90% RH, 1 month): Crystal form A | Crystal form result by XRPD test ([1]; 90% RH, 2 months): Crystal form A | Crystal form result by XRPD test ([1]; 90% RH, 3 months): Crystal form A | Crystal form result by XRPD test ([1]; 90% RH, 5 days): Crystal form A | Crystal form result by XRPD test ([1]; 90% RH, 10 days): Crystal form A | stability of crystal form in solvent, suspension method ([2]; ethanol, isopropanol, ethyl acetate, isopropyl acetate, methyl tert-butyl ether, tetrahydrofuran, N-methylpyrrolidone, methyl acetate, 2-methyltetrahydrofuran, cyclohexane, n-hexane, toluene, or n-heptane): relatively good stability | crystal form when stirred in solvent ([2]; ethanol, isopropanol, ethyl acetate, isopropyl acetate, methyl tert-butyl ether, tetrahydrofuran, N-methylpyrrolidone, methyl acetate, 2-methyltetrahydrofuran, cyclohexane, n-hexane, toluene, or n-heptane at 25-50° C.): remained stable | Crystal form (XRPD) ([2]; suspension in 1,4-Dioxane, 25° C.): Crystal form A | Crystal form (XRPD) ([2]; suspension in 1,4-Dioxane, 50° C.): Crystal form E | Crystal form (XRPD) ([2]; suspension in Acetone-water 1:1, 25° C.): Clear solution | Crystal form (XRPD) ([2]; suspension in Acetone-water 1:1, 50° C.): Clear solution | Crystal form (XRPD) ([2]; suspension in Acetonitrile-water 1:1, 25° C.): Clear solution | Crystal form (XRPD) ([2]; suspension in Acetonitrile-water 1:1, 50° C.): Clear solution | Crystal form (XRPD) ([2]; suspension in Dichloromethane, 25° C.): No solid sample | Crystal form (XRPD) ([2]; suspension in Dichloromethane, 50° C.): No solid sample | Crystal form (XRPD) ([2]; suspension in Dichloromethane/acetone (v/v, 1:1), 25° C.): Crystal form A | Crystal form (XRPD) ([2]; suspension in Dichloromethane/acetone (v/v, 1:1), 50° C.): No solid sample | Crystal form (XRPD) ([2]; suspension in Dichloromethane/methanol (v/v, 1:1), 25° C.): Clear solution | Crystal form (XRPD) ([2]; suspension in Dichloromethane/methanol (v/v, 1:1), 50° C.): No solid sample | Crystal form (XRPD)/85° C. ([2]; suspension in Dioxane): Crystal form A | Crystal form (XRPD)/85° C. ([2]; suspension in MIBK): Crystal form A | Crystal form (XRPD) ([2]; suspension in Methanol-water 1:1, 25° C.): Crystal form B | Crystal form (XRPD) ([2]; suspension in Methanol-water 1:1, 50° C.): Clear solution | Crystal form (XRPD) ([2]; suspension in Methyl tert-butyl ether, 25° C.): Crystal form A | Crystal form (XRPD) ([2]; suspension in Methyl tert-butyl ether, 50° C.): Crystal form A | Crystal form (XRPD) ([2]; suspension in Tetrahydrofuran, 25° C.): Crystal form A | Crystal form (XRPD) ([2]; suspension in Tetrahydrofuran, 50° C.): Crystal form A | Crystal form (XRPD) ([2]; suspension in Toluene, 25° C.): Crystal form A | Crystal form (XRPD) ([2]; suspension in Toluene, 50° C.): Crystal form A | Crystal form (XRPD) ([2]; suspension in Water, 25° C.): Crystal form B | Crystal form (XRPD) ([2]; suspension in Water, 50° C.): Crystal form B | Crystal form (XRPD) ([2]; suspension in n-Heptane, 25° C.): Crystal form A | Crystal form (XRPD) ([2]; suspension in n-Heptane, 50° C.): Crystal form A | Crystal form (XRPD)/85° C. ([2]; suspension in n-Heptane): Crystal form A | crystal form when stirred in solvent ([2]; toluene or n-heptane at 25-85° C.): remained stable | Crystal form (XRPD)/85° C. [3]: Crystal form A | Crystal form (XRPD) ([4]; good solvent Dichloromethane, poor solvent Acetone): Crystal form A | Crystal form (XRPD) ([4]; good solvent Dichloromethane, poor solvent Acetonitrile): Crystal forms A + B | Crystal form (XRPD) ([4]; good solvent Dichloromethane, poor solvent Ethanol): Crystal form A | Crystal form (XRPD) ([4]; good solvent Dichloromethane, poor solvent Ethyl acetate): Crystal forms A + B | Crystal form (XRPD) ([4]; good solvent Dichloromethane, poor solvent Tetrahydrofuran): Crystal forms A + B | Crystal form (XRPD) ([4]; good solvent Dimethyl sulfoxide, poor solvent Acetone): Clear solution | Crystal form (XRPD) ([4]; good solvent Dimethyl sulfoxide, poor solvent Acetonitrile): Clear solution | Crystal form (XRPD) ([4]; good solvent Dimethyl sulfoxide, poor solvent Ethanol): Clear solution | Crystal form (XRPD) ([4]; good solvent Dimethyl sulfoxide, poor solvent Ethyl acetate): Clear solution | Crystal form (XRPD) ([4]; good solvent Dimethyl sulfoxide, poor solvent Tetrahydrofuran): Clear solution | Crystal form (XRPD) ([4]; good solvent Methanol, poor solvent Acetone): Clear solution | Crystal form (XRPD) ([4]; good solvent Methanol, poor solvent Acetonitrile): Clear solution | Crystal form (XRPD) ([4]; good solvent Methanol, poor solvent Ethyl acetate): Clear solution | Crystal form (XRPD) ([4]; good solvent Methanol, poor solvent Tetrahydrofuran): Clear solution | Crystal form (XRPD) ([4]; good solvent N,N-Dimethylformamide, poor solvent Acetone): Clear solution | Crystal form (XRPD) ([4]; good solvent N,N-Dimethylformamide, poor solvent Acetonitrile): Clear solution | Crystal form (XRPD) ([4]; good solvent N,N-Dimethylformamide, poor solvent Ethanol): Clear solution | Crystal form (XRPD) ([4]; good solvent N,N-Dimethylformamide, poor solvent Ethyl acetate): Clear solution | Crystal form (XRPD) ([4]; good solvent N,N-Dimethylformamide, poor solvent Tetrahydrofuran): Clear solution | Concentration ([5]; 0.01N hydrochloric acid, 15 min): >6 | Concentration ([5]; 0.01N hydrochloric acid, 2 h): >6 | Concentration ([5]; 0.01N hydrochloric acid, 4 h): >6 | Concentration ([5]; 0.01N hydrochloric acid, 24 h): >6 | Concentration ([5]; Pure water, 15 min): 0.747 | Concentration ([5]; Pure water, 2 h): 4.930 | Concentration ([5]; Pure water, 4 h): 4.657 | Concentration ([5]; Pure water, 24 h): 4.567 | Concentration ([5]; pH 1.2, 15 min): >6 | Concentration ([5]; pH 1.2, 2 h): >6 | Concentration ([5]; pH 1.2, 4 h): >6 | Concentration ([5]; pH 1.2, 24 h): >6 | Concentration ([5]; pH 4.5, 15 min): >6 | Concentration ([5]; pH 4.5, 2 h): 0.044 | Concentration ([5]; pH 4.5, 4 h): 0.046 | Concentration ([5]; pH 6.8, 15 min): 0.003 | Concentration ([5]; pH 6.8, 2 h): 0.005 | Concentration ([5]; pH 6.8, 4 h): 0.005 | Concentration ([5]; pH 6.8, 24 h): 0.015 | hygroscopic weight gain (DVS curve) [6]: 0.31±0.005% and 0.31%
